The structures appear in SMILES notation. Calls of active or inactive are those of the source. Where only a bound is given, the exact number is not on record here.

One may read the AC50 as the concentration giving half of the maximal activity seen.

The target in one assay is T1, Protein RecA (Mycobacterium tuberculosis, UniProt P9WHJ3).
T1 sequence (P9WHJ3 whole entry): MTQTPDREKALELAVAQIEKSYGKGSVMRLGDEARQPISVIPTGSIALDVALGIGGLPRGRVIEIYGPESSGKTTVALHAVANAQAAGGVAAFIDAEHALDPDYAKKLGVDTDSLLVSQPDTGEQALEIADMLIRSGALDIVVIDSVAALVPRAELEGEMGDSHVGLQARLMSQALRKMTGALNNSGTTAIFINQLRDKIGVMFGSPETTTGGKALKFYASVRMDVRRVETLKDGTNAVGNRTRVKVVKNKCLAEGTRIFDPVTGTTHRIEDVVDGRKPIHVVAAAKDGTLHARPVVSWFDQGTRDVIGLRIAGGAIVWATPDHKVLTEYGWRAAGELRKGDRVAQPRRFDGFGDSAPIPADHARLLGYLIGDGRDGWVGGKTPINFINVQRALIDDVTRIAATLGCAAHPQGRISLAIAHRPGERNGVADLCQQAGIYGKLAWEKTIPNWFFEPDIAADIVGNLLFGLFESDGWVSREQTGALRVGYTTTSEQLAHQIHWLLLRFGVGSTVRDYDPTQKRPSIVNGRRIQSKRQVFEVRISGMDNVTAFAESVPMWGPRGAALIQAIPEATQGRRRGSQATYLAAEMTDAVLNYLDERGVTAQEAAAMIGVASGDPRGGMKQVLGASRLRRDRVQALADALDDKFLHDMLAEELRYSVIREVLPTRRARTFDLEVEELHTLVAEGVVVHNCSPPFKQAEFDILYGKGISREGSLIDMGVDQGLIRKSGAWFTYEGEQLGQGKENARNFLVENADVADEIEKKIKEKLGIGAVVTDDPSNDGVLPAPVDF
The assay is described as follows: Fluorescence Cell-Free Homogeneous Dose Retest to Identify Inhibitors of RecA-Intein Splicing Activity. [Related pubchem assays (depositor defined):AID2097, AID2223, AID489010, AID492950]. The format is functional.

For assay [1], the target named is T2, Replicative DNA helicase DnaB (Mycobacterium tuberculosis, UniProt P9WMR3).
T2 sequence (P9WMR3 whole entry): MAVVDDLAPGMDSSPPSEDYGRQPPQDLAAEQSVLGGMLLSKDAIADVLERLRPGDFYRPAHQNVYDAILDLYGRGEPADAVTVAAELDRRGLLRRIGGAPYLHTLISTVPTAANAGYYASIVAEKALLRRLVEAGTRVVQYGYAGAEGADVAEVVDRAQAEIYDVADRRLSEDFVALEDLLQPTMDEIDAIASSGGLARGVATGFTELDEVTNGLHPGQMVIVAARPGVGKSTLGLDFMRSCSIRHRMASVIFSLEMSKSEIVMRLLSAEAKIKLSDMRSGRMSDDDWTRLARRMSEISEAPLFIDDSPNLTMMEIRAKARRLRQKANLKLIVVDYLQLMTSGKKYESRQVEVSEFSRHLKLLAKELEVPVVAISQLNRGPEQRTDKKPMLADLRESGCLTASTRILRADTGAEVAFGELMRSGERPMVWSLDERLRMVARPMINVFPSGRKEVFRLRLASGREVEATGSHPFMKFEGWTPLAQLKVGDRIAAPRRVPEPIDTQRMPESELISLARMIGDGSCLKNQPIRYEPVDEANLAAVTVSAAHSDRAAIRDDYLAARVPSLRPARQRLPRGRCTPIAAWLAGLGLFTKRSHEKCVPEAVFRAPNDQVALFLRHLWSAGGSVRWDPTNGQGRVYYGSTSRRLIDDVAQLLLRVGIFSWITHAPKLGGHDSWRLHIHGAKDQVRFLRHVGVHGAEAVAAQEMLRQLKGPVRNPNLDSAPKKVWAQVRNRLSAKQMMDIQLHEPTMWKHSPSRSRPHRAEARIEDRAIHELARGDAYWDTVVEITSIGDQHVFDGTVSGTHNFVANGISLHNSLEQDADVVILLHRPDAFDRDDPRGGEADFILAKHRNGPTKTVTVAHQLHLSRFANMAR
The assay is described as follows: DnaB intein splicing inhibitors, dose response, biochemical, cell-free fluorescence (AID 449749). The format is functional.

Assay [2] concerns the target T3, Apoptotic protease-activating factor 1 (Homo sapiens, UniProt O14727).
T3 sequence (O14727 whole entry): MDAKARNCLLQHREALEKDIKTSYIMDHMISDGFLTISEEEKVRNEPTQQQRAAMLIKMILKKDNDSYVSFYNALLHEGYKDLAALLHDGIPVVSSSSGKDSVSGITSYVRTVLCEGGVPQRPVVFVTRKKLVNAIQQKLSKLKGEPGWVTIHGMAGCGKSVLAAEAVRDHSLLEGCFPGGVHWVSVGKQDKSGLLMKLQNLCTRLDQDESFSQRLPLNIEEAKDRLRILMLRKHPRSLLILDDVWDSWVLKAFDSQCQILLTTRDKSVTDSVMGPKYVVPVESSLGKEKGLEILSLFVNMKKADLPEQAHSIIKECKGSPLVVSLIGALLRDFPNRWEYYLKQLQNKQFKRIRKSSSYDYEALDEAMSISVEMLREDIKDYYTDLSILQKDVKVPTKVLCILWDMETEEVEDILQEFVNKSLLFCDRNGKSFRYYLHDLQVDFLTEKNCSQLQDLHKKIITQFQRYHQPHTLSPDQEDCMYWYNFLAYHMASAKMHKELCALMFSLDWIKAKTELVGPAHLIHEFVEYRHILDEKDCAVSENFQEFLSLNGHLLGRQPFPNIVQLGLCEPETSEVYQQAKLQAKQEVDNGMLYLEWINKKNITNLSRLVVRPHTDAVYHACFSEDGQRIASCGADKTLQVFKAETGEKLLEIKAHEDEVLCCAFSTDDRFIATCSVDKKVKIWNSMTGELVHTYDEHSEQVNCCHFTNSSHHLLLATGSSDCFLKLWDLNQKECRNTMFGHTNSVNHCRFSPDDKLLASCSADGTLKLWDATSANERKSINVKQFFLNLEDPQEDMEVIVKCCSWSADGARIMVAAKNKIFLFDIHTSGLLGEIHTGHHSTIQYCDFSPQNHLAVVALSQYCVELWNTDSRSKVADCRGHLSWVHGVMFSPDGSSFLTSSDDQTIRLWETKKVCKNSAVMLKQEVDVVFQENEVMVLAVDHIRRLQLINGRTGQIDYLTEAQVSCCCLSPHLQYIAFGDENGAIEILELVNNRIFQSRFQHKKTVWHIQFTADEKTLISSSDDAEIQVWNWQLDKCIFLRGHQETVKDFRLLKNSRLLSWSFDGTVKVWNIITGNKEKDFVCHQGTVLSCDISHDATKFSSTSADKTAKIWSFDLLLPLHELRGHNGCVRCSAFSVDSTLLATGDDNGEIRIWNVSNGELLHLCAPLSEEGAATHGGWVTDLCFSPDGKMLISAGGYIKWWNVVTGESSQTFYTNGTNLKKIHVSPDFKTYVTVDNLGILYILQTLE
The format is functional.

Assay [3] addresses T4, Aryl hydrocarbon receptor (Homo sapiens, UniProt P35869).
T4 sequence (P35869 whole entry): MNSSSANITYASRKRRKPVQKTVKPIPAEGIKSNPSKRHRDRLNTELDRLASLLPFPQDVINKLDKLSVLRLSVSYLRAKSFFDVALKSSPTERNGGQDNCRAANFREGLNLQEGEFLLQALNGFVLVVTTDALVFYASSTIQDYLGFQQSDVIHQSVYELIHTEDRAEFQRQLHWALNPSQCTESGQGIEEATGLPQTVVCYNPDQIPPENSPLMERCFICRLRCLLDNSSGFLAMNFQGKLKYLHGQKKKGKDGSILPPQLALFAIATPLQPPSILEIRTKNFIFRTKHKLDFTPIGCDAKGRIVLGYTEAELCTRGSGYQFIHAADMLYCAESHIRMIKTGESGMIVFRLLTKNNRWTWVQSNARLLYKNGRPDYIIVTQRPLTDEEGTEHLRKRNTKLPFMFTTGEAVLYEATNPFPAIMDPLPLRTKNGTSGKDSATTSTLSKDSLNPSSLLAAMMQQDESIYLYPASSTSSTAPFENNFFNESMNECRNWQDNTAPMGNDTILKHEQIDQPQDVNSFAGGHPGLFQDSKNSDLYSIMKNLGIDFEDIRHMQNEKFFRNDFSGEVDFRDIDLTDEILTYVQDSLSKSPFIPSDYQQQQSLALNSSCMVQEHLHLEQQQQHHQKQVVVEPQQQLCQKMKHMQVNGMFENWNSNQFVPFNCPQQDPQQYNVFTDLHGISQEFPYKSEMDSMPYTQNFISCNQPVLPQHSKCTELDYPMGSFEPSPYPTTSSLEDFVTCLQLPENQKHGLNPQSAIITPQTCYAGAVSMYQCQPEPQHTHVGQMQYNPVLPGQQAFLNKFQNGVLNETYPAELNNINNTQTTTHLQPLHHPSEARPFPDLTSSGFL
As to conditions: Potency.

The next assay concerns the target Cytochrome P450 3A4 (Homo sapiens, UniProt P08684). As to conditions: Potency.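 Also: confirmatory qHTS run detecting inhibitors and substrates of CYP3A4.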
The target in assay [4] is T5, Oxysterols receptor LXR-beta (Homo sapiens, UniProt P55055).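 Also: Cell-based luminescence dose-response assay of agonist activity at LXR, run as a confirmatory counterscreen to a daf-12 agonist screen; HEK293 cells with Gal4-LXR fusion and GAL4-driven luciferase reporter; agonist potency from rising luciferase signal of a Gal4-LXR reporter.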
T5 sequence (P55055 whole entry): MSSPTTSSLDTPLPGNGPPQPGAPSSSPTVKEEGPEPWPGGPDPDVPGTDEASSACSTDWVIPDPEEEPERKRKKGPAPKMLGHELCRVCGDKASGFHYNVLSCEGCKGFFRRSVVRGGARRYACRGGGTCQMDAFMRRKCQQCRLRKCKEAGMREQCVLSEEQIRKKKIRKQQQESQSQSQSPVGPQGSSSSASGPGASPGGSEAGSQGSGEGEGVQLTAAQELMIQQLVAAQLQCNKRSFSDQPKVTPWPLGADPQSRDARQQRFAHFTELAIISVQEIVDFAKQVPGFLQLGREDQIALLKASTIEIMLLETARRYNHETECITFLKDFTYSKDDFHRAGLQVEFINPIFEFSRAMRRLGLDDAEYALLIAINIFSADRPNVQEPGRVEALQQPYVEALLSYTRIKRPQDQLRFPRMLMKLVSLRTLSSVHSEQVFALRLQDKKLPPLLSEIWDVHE
The format is functional, cell-based.

The target of assay [5] is Ras and Rab interactor 1/Tyrosine-protein kinase ABL1 (Homo sapiens, UniProt P00519+Q13671). The format is functional.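 Also: biochemical TR-FRET dose-response test measuring inhibition of binding between Rin1 and Abl proteins.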
Sequence of Ras and Rab interactor 1/Tyrosine-protein kinase ABL1 (P00519 whole entry): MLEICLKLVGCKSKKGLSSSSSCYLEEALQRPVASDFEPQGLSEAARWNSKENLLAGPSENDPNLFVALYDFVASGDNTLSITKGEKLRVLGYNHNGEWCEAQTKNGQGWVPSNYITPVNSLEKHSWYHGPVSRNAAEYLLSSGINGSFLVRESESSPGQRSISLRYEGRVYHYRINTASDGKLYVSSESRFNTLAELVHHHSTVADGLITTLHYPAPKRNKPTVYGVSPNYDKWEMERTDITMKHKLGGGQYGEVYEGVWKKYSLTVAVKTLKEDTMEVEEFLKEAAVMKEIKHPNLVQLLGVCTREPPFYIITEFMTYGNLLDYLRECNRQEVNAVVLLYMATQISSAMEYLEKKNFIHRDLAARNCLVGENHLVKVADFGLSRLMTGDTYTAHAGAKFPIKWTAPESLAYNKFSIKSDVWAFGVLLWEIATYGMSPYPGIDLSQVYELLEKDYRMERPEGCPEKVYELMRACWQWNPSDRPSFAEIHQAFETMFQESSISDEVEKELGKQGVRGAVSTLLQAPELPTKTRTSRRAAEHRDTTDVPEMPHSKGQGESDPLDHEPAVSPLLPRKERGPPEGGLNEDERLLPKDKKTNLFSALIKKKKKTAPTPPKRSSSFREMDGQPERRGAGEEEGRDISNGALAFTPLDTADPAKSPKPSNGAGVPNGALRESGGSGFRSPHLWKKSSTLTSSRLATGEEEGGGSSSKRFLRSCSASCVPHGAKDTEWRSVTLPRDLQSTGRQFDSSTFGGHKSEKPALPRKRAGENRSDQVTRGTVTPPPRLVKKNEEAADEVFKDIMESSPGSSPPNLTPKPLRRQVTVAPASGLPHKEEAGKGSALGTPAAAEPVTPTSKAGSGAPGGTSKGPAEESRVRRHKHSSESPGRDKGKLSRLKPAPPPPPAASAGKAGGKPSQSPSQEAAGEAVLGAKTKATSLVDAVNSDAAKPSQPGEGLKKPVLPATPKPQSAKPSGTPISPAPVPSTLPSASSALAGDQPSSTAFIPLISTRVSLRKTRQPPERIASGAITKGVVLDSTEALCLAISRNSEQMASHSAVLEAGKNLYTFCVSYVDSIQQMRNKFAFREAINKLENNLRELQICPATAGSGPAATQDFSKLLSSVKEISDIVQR
Sequence of Ras and Rab interactor 1/Tyrosine-protein kinase ABL1 (Q13671 whole entry): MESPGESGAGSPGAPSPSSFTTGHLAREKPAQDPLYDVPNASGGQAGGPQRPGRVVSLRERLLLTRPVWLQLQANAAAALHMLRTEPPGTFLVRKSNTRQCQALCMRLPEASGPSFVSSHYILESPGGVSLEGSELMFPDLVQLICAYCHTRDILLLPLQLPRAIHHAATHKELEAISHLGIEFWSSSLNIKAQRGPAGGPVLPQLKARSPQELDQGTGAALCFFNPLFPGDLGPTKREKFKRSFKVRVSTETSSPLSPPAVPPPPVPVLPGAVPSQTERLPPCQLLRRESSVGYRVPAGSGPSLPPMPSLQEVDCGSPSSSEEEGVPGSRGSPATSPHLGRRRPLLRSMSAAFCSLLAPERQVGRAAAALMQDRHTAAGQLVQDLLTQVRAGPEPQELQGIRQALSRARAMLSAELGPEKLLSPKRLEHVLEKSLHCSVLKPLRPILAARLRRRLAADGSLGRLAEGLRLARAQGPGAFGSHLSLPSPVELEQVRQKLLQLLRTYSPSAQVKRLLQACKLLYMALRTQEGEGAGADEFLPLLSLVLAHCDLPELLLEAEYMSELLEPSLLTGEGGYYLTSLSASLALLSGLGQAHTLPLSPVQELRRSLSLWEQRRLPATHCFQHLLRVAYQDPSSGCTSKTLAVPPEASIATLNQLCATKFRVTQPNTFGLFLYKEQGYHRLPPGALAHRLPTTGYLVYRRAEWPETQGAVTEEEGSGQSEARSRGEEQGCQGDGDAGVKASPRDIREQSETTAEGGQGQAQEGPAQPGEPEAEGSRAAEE
The target in assay [6] is Protein disulfide-isomerase (Homo sapiens, UniProt P07237). The assay is described as follows: inhibition of PDI-driven insulin aggregation – biochemical, turbidity, absorbance, cherry-picked samples, dose response (AID 602350). The format is functional.
Sequence of Protein disulfide-isomerase (P07237 whole entry): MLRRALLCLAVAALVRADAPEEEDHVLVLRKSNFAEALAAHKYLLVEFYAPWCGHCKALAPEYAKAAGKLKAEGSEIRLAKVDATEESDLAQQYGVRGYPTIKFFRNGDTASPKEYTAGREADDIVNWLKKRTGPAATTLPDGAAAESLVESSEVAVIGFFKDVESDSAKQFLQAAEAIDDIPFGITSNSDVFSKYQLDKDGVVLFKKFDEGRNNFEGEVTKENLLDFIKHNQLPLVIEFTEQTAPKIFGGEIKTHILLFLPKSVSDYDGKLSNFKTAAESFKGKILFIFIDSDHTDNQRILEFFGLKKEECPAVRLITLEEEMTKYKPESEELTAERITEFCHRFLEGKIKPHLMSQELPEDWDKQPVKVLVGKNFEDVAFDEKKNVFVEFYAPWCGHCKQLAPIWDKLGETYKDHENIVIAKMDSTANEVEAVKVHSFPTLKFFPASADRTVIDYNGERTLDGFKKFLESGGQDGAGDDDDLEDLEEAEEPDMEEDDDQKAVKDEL
Assay [7] deals with Dual specificity tyrosine-phosphorylation-regulated kinase 1A (Rattus norvegicus, UniProt Q63470). The format is biochemical, Homo sapiens.
For assay [8], the target named is Tyrosine-protein phosphatase non-receptor type 11 (Homo sapiens, UniProt Q06124). The assay is described as follows: PTPN11 enzyme inhibitors – biochemical, selectivity assay for STEP inhibitor project, dose response (AID 602367). As to conditions: read-out: IC50_Mean. The format is functional.
Sequence of Tyrosine-protein phosphatase non-receptor type 11 (Q06124 whole entry): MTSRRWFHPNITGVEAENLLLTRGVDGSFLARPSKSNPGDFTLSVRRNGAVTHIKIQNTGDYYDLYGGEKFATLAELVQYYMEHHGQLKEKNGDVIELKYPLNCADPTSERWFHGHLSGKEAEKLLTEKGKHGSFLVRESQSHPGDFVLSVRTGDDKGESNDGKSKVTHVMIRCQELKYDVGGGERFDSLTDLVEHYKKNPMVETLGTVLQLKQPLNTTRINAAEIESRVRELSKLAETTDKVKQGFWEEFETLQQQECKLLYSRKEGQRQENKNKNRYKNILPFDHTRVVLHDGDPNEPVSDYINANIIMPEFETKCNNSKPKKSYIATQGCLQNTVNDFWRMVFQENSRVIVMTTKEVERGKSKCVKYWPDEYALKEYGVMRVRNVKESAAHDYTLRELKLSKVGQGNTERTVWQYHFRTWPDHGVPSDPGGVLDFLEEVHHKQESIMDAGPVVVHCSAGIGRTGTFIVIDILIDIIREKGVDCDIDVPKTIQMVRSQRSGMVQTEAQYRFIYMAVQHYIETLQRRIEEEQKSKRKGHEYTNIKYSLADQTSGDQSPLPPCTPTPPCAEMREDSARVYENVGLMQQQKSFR
The target of assay [9] is Dual specificity protein phosphatase 3 (Homo sapiens, UniProt P51452). Briefly: VHR phosphatase inhibition, dose response, selectivity assay for STEP inhibitor project, biochemical (AID 602374). The format is functional. As to conditions: read-out: IC50_Mean.
Sequence of Dual specificity protein phosphatase 3 (P51452 whole entry): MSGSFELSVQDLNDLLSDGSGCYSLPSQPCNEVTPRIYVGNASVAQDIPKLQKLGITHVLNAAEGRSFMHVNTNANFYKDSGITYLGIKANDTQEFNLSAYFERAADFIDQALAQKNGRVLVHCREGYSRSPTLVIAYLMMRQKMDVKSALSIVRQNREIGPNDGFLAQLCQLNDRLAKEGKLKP
The target in assay [10] is Tyrosine-protein phosphatase non-receptor type 5 (Homo sapiens, UniProt P54829). Briefly: PTPN5 enzyme inhibition – biochemical, fluorescence intensity, uHTS hits, confirmation (AID 602372). As to conditions: read-out: IC50_Mean. The format is functional.
Sequence of Tyrosine-protein phosphatase non-receptor type 5 (P54829 whole entry): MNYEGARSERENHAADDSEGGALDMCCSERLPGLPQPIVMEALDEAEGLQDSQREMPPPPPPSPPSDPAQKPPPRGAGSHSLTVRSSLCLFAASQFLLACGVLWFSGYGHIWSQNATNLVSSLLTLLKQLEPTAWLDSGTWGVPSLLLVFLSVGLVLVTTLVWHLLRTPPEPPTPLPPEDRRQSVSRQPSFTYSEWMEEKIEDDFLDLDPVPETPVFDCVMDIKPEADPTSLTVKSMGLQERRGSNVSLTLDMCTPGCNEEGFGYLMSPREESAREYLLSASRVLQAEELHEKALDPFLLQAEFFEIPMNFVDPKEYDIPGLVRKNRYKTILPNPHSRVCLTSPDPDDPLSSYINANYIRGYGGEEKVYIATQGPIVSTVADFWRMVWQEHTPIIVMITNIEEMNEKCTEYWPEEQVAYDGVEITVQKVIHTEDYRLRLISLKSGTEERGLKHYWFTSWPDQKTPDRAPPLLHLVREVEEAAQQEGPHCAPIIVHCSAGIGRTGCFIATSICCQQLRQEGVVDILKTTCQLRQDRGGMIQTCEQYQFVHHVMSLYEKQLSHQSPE
Assay [11] deals with T6, Low molecular weight phosphotyrosine protein phosphatase (Homo sapiens, UniProt P24666).
T6 sequence (P24666 whole entry): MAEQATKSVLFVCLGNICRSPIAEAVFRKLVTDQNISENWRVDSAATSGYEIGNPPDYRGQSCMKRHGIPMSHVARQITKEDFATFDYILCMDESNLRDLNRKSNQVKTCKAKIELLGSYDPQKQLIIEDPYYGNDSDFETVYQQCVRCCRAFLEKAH
The format is functional. As to conditions: read-out: IC50_Mean.

Assay [12] concerns the target T3, Apoptotic protease-activating factor 1. The assay is described as follows: SAR analysis of small molecule Activators of Apaf-1 in a Fluorescent assay. As to conditions: read-out: EC50_Mean. The format is functional.
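For EC50 Mean in this document: caspase-3 cleavage of fluorogenic Rh110 DEVD substrate downstream of apoptosome activation.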

Sequence of Cytochrome P450 3A4 (P08684 whole entry, the tested form may be a part): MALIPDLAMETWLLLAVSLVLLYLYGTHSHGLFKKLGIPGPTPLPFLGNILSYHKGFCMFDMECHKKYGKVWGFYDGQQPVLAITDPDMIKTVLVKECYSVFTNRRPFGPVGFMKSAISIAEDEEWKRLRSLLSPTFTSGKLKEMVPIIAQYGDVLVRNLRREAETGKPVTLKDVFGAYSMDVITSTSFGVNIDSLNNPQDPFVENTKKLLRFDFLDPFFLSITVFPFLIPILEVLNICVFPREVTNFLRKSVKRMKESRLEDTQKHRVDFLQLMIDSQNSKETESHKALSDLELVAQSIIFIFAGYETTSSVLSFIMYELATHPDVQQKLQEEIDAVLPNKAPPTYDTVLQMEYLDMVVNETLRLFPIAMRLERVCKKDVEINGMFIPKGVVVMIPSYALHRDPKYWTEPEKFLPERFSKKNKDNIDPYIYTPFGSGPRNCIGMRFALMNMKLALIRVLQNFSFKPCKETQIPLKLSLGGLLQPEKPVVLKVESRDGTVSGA

In the case of `CCCc1n[nH]c2c1C(c1ccc(OC)c(CSC3=NCCS3)c1)C(C#N)=C(N)O2` (stereo unspecified), on Protein RecA, the EC50 is 4.56 µM (active). Also, in assay [1], the half-maximal activity concentration (AC50) was 2.99 µM (active). For the same compound, the IC50 in assay [2] was 23.9 µM (active).

As for `Nc1ccc(Cl)c(Cl)c1`, the AC50 was 56.2 µM (inconclusive) in [3] and 25.1 µM (inconclusive) at Cytochrome P450 3A4.

As to `O=[N+]([O-])c1ccccc1-c1ccc(C(=S)N2CCCC2)o1`, the IC50 in assay [2] is 49.8 µM (active). For the same compound, the EC50 (in “cells”; in assay [4]) was > 67.5 µM (inactive) each time.

For the compound `CC(C)OC(=O)Cc1ccccc1`, in [3], the AC50 is 35.5 µM (inconclusive).

For `COc1ccccc1CNC(=O)CSc1nnc2ccc(-c3cccnc3)nn12`, in [5], the IC50 is > 73.5 µM (inactive).

As for `C[C@@H]1O[C@@H](O[C@H]2[C@H](O)[C@@H](O)[C@H](Oc3c(-c4ccc(O)cc4)oc4cc(O)cc(O)c4c3=O)O[C@@H]2CO)[C@H](O)[C@H](O)[C@H]1O`, in assay [6], the AC50 was 6.92 µM (active).

As for `C[C@@H]1O[C@@H](OC[C@H]2O[C@@H](Oc3c(-c4ccc(O)c(O)c4)oc4cc(O)cc(O)c4c3=O)[C@H](O)[C@@H](O)[C@@H]2O)[C@H](O)[C@H](O)[C@H]1O`, the values for the concentration at half-maximal activity (AC50) in [7] and in [6] were 4.08 µM (active) and 7.62 µM (active), respectively. In addition, in assay [5], the IC50 was > 73.5 µM (inactive).

Turning to `Cc1ccc(S(=O)(=O)N2CCCCC2)cc1NC(=O)c1ccc(=O)[nH]c1`, the IC50 in assay [8] is 4.88 µM (active); in assay [9], 3.08 µM (active); in assay [10], 29.6 µM (inactive); in assay [11] it was 37.1 µM (inactive).

As to `CN1CCC(Oc2ccccc2N2CC(C(=O)O)CC2=O)CC1` (stereo unspecified), in assay [12], the EC50 is > 100 µM (inactive).

As for `O=C(Nc1ccc(F)cc1F)C1CC(c2ccc(F)cc2)=NO1` (stereo unspecified), the EC50 in assay [12] is > 100 µM (inactive).

In the case of `O=c1c(O[C@@H]2O[C@H](CO)[C@@H](O)[C@H](O)[C@H]2O)c(-c2ccc(O)cc2)oc2cc(O)cc(O)c12` [ASTRAGALIN], the AC50 in assay [6] is 19 µM (active).

Source of the values: ChEMBL document CHEMBL1201862, “PubChem BioAssay data set” (2004).
